No end group written: not given here. *: point of attachment. Biotin = O=C1N[C@H]2[C@H](CS[C@H]2CCCCC(=O)*)N1
Columns and labels:
mouse splenic B cells = assay: TLR activation of mouse splenic B cells: ectopic CLIP in MHC class II; assay type: cell-based; details: for exogenous CLIP expression on activated mouse B cells: treatment in vitro with Toll ligand, FIG. 12d
Method: FIG. 12 depicts TLR activation of mouse splenic B cells results in ectopic CLIP in MHC class II. FIG. 12a: LPS activation of spleen cells from B6.129 mice (H-2b). B cells are detected by staining with PE conjugated anti-mouse B220, shown on Y-axis, versus staining with 15G4-FITC anti-mouse CLIP/I-Ab, as shown on the X-axis. A representative of four experiments at unique time points, 0 to 72 hours by 24-hour increments, left to right, is shown. FIG. 12b (linear representation from FIG. 12a): changes in percentages of CLIP+ B cells, left Y-axis, and quantitative depiction of increasing mean fluorescence intensity of CLIP/I-Ab staining, right Y-axis. FIG. 12c: antigen receptor engagement increases cell surface MHC class II but not ectopic CLIP. B6.129 splenocytes, untreated or treated in vitro with anti-immunoglobulin (as a surrogate for antigen) or CpG-ODN were stained with anti-mouse B220-PE versus 15G4-FITC anti-mouse CLIP/I-Ab (bars, left Y-axis) or with anti-mouse B220-PE versus anti-mouse MHC class II-FITC (I-Ab) (line graph, right Y-axis). FIG. 12d: toll ligands 9, 10 used to activate cells, listed from top down, Poly I:C, Pam3Cys, R848, LPS, CpG-ODN, and no treatment, as indicated. Shown are percentages of CLIP+ B cells in splenocytes stimulated […] from B6.129 mice, left panel; H2M-deficient mice, middle panel; Ii-deficient mice, right panel.
Total splenocytes, from either B6.129, Ii-deficient, or H2M-deficient mice were cultured with LPS for 24, 48, 72, or 96 hours as indicated. Cells were harvested and stained by two-color fluorescence using 15G4-FITC anti-mouse CLIP/I-A^b versus anti-mouse B220 PE.
Freshly isolated splenocytes, single cell suspensions of lymph node cells, resting (or activated) B cells, or primed B cells were isolated from B6.129, Ii-deficient, or H2M-deficient mice and cultured in 24 well plates in complete RPMI medium, with or without the appropriate Toll ligand, at 10^6 cells/ml. Cells were cultured for 24, 48, 72, 96, or up to 144 hours. Cells were harvested and stained by flow cytometric analysis using either a Beckman Coulter Excel or a Beckman Coulter FC500 flow cytometer. Cells were stained by two-color fluorescence using 15G4-FITC anti-mouse CLIP/I-A^b versus anti-mouse B220 PE. For co-culture experiments (5×10^5) were combined with T cells (5×10^4) in 24 well plates in complete medium, with or without the appropriate antigen. Experiments with 3A9, 2A11 or A6.A2 employed 3 mg/ml tryptic digest of HEL as a source of pre-processed antigen, i.e., peptide. Cultures were incubated overnight at […] in a humidified 5% CO2, 95% air incubator.
Multi-parameter flow cytometric analysis for the fluorescent detection of ectopic CLIP, mouse B220, human CD19 or CD20, human CLIP, human HLA-DR, and human CLIP or apoptosis were performed using a Beckman Coulter Excel or a Beckman Coulter FC500 flow cytometer (Beckman Coulter, Hialeah, Fla.). Mouse splenic cells were cultured in complete RPMI for the times indicated. Resting, primed, or activated B cells were cultured in the presence of T cells (vide supra). At the end of 16 h of culture, the cells were harvested and washed. Ethidium bromide (detected by red fluorescence) was added immediately before analysis of each tube. The cells were analyzed by first gating using forward vs. side scatter then using increased fluorescence as a measure of detection of the indicated cell surface antigens.

[1] = tested on: CLIP^+ B cells in human PBMC; assay: Peptide replacement of CLIP on R848-activated human PBMC B cells; assay type: cell-based; details: PBMC of two donors cultured with R848 for 48 hours with peptide
Method: (§1) FIG. 13 depicts TLR activation results in ectopic CLIP expression on human B cells from peripheral blood mononuclear cells (PBMC) cultures. FIG. 13a: human PBMC from five donors were cultured for 24 hours with toll ligands (CpG-ODN, LPS, Pam3Cys, and Poly I:C) and were stained with a pan anti-HLA-DR-FITC antibody (values of isotype controls were subtracted from the specific stains, ΔMFI). FIG. 13b: cells were stained using anti-human CLIP-FITC versus CD19-PE (values of isotype controls were subtracted from the specific stains, ΔMFI). For FIGS. 13a & 13b: nil vs. CpG p=0.06821; nil vs. LPS p=0.0390; nil vs. PAM p=0.0124. FIG. 13c: cells were stained for CLIP-FITC versus CD19-PE as described for FIG. 13b. The data represent the percent of total PBMC that are CLIP+ B cells subsequent to treatment. For FIG. 13c: nil vs. CpG p=0.0058; nil vs. LPS p=0.0254. […]
(§2) PBMC were prepared from a total of seven adult normal donors, five for examining the effects of TLR binding on the percentage of ectopic CLIP^+ B cells and changes in mean fluorescence intensity of the CLIP staining resulting from TLR stimulation with CpG-ODN, LPS, Pam-3-Cys, and Poly I:C. […] Cells were analyzed using either a BD FacsCalibur, for the five samples, or a Coulter FC500 for the two tissue typed samples. […]

[2] = tested on: cell surface CLIP on Raji and Daudi cells; assay: Competition of synthetic peptides with cell surface CLIP (Fitc anti-human CLIP); assay type: cell-based; details: biotinylated competing peptide
Description: Based on a computational model comparing the peptide content of TNP mixture and identifying those peptides that would have the likeliest ability to compete for the peptide/antigen binding site for MHC class II (human HLA-DR, DP, and DQ), several peptide candidates were synthesized and examined for activity. The purpose of the study was to determine if synthetic peptides can compete for binding with CLIP peptides as measured with either Fitc anti-human CLIP antibody or, comparatively in the case of biotinylated peptides, with Streptavidin.
Cell Culture Conditions: The Raji and Daudi cell lines were purchased from American Type Culture Collection, were thawed, and grown in RPMI 1640 medium supplemented with standard supplements, including 10% fetal calf serum, gentamycin, penicillin, streptomycin, sodium pyruvate, HEPES buffer, 1-glutamine, and 2-ME.
Protocol: Cells were plated into a 12 well plate with 3 mls total volume containing approximately 1.5×10^6/well for Daudi cells and 3.0×10^6/well for Raji cells. Treatment groups included no treatment as control; MKN 3 and MKN 5 at 50 microMolar final concentration based on the reported molarity of the synthesized compounds.
The cells were incubated at 37° C. in an atmosphere containing 5% CO2 and approximately 92% humidity. The cells were incubated for 4 and 24 hours. At each time point, the cells from that experimental time were harvested and stained for flow cytometric analysis of cell surface expression of CLIP (MHC Class II invariant peptide, human) by using the commercially available (Becton/Dickinson/PHarmingen) anti-human CLIP Fitc. Catalogue #555981 versus Streptavidin.
Harvested cells were stained using standard staining procedure that called for a 1:100 dilution of Fitc-anti-human CLIP or isotype control versus 1:200 dilution of the commercially prepared Streptavidin. Following staining on ice for 25 minutes, cells were washed with PBS/FCS and resuspended in 100 microliters and added to staining tubes containing 400 microliters of PBS. Samples were acquired and analyzed on a Coulter Excel Flow Cytometer.
In the Histogram analyses of FIGS. 5-7 the Y axis represents cell number of the 5000 live cells versus the X axis which is a reflection of relative Fitc fluorescence versus Streptavidin-PE (eBioscience, Cat. #12-4317) that will bind with high affinity to cell-bound biotinylated peptides. The distance between the histogram from the isotype control staining versus the histogram reflecting the specific stain and is a measure of level of cell surface CLIP or the biotinylated peptide when stained with Streptavidin on a population of live Raji or Daudi cells as indicated.

Raji or Daudi cells = assay: Cell surface CLIP and CD74 levels after MKN1 (bioCLIP); assay type: cell-based, human
Method: The ability of MKN1 (bioCLIP) to alter cell surface CLIP and CD74 levels was also determined using Raji or Daudi cells.

B cell surface CLIP = B cell surface CLIP after 2-Deoxyglucose and dichloroacetate (FIG. 4); assay type: cell-based
[3] = tested on: human B cells from peripheral blood mononuclear cells (PBMC); assay: TLR activation of human B cells in PBMC cultures: ectopic CLIP; assay type: cell-based; details: PBMC from five healthy donors, 24 hours, 5 μg per ml
Method: as §1, §2

polyinosinic:polycytidylic acid [Poly I:C]
exogenous CLIP expression on activated mouse B cells (mouse splenic B cells): resulted in exogenous CLIP expression on the activated mouse B cells

ANSGIIGDITEEVGGQY [VGV-pB]
percentage of CLIP^+ B cells and level of CLIP per B cell [1]: reduced the frequency of CLIP^+ B cells and the level of CLIP per cell in one individual but not the other

KALVQNDTLLQVKG [SEQ ID NO 1]
cell surface bound CLIP ([2]; 4 hours): small decreases in cell surface bound CLIP | cell surface bound CLIP ([2]; 24 hours): significant decreases

(S)-(2,3-bis(palmitoyloxy)-(2RS)-propyl)-N-palmitoyl-(R)-Cys-(S)-Ser(S)-Lys4-OH, trihydrochloride [Pam3Cys]
exogenous CLIP expression on activated mouse B cells (mouse splenic B cells): resulted in exogenous CLIP expression on the activated mouse B cells

SGGGSKMRMATPLLMQALY (Biotin-SGGGSKMRMATPLLMQALY) [MKN1]
cell surface CLIP and CD74 levels (Raji or Daudi cells): alters cell surface CLIP and CD74 levels

CCOCc1nc2c(N)nc3ccccc3c2n1CC(C)(C)O [R848, imidazoquinoline resiquimod]
exogenous CLIP expression on activated mouse B cells (mouse splenic B cells): resulted in exogenous CLIP expression on the activated mouse B cells

O=CC[C@@H](O)[C@H](O)[C@H](O)CO [2-Deoxyglucose, 2-deoxy-D-glucose]
B cell surface CLIP (B cell surface CLIP): affects B cell surface CLIP

lipopolysaccharide [LPS]
exogenous CLIP associated with MHC class II on splenic B cells (mouse splenic B cells; in vitro stimulation of resting mouse splenocytes, 0 to 72 hours): time-dependent increase in exogenous CLIP associated with MHC class II | exogenous CLIP expression on activated mouse B cells (mouse splenic B cells): resulted in exogenous CLIP expression on the activated mouse B cells | ectopic CLIP on human B cells [3]: Statistically significant increases in ectopic CLIP

Source: patent publication US20100034839A1, “METHODS FOR TREATING VIRAL DISORDERS” (priority 2008, published 2010)
